These are literature values, as cited in patent publication US8091275B2, “pH buffered plant nutrient compositions and methods for growing plants” (AeroGrow International, priority 2004, dated 2012).

The test system of this data set is plants. As to conditions: phosphorous maintained at levels adequate to stabilize pH (1 to 10 mM).

On to phosphorous, for which the toxicity to plants entry is given as “toxic to plants”.
